The values that follow come from patent publication US11548870B2, “Compounds useful as inhibitors of helios protein” (Bristol-Myers Squibb Company, priority 2019, dated 2023).

In one test the target is T1, Ikaros (Homo sapiens, UniProt Q13422).
T1 construct: fluorescently labelled antibodies against Helios and Ikaros; endogenous in cells; host or cells: Jurkat cells
The test can be described thus: Helios Cellular Degradation Assay, Ikaros readout (flow cytometry, Ikaros-Alexa488 antibody staining, 72 h). The settings on record: Jurkat cells, 72 h incubation, flow cytometry; for Dmax: Jurkat, read-out: Ikaros Dmax. Type of test: cell-based. As for the experimental part:
(§1) Helios Cellular Degradation Assay
(§2) Jurkat cells were plated at 80,000 cells/well in 40 μL RPMI+10% FBS in a 384 well cell culture plate prior to using acoustic dispensing technology for adding compound of interest. Cell cultures were incubated for 72 h at 37° C. and 5% CO2. In order to facilitate analysis, cell cultures were spun down at 200 rpm for 5 min and the supernatant was discarded. After shaking the plate to dislodge the cell pellet, cells were resuspended in 50 μL of Fixation Buffer (eBioScience FoxP3 buffer set 0000) for 60 min at room temperature. After centrifuging and discarding the supernatant, cells were permeabilized with 50 μL of Permeabilization buffer (eBioScience FoxP3 buffer set 00-5523-00) for 10 min at room temperature. Following permeabilization, cells were spun down and the supernatant was replaced with 20 μL fluorescently labelled antibodies against Helios and Ikaros or corresponding Isotype controls in 1× Permeabilization buffer (Ikaros-Alexa488 [Biolegend, Cat #368408, 1:50], Helios-PE [CST, Cat #29360, 1:50]) and staining reactions were incubated for 1 h at room temperature; protected from light. Subsequently, 30 μL of 1× Permeabilization buffer was added prior to centrifuging the cells and discarding the supernatant. Stained cells were resuspended in 25 μL of flow cytometry staining buffer (PBS+0.2% BSA) and analyzed using an Intellicyt Ique Plus flow cytometer.
as §2, with “00-5523-00)” for “0000)”
In general terms: A flow cytometer gives signals particle by particle.

The next test has as its target T2, Helios (Homo sapiens, UniProt Q96SW2+Q9UKS7).
T2 construct: fluorescently labelled antibodies against Helios and Ikaros; endogenous in cells; host or cells: Jurkat cells
The experiment in a line: Helios Cellular Degradation Assay (flow cytometry, Helios-PE antibody staining, 72 h). Type of test: cell-based. The conditions noted are these: Jurkat cells, 72 h incubation, flow cytometry; for Dmax: Jurkat, read-out: Helios Dmax. As for the experimental part:
as §1, §2
as §2, with “00-5523-00)” for “0000)”

T1 sequence (Q96SW2 whole entry partner): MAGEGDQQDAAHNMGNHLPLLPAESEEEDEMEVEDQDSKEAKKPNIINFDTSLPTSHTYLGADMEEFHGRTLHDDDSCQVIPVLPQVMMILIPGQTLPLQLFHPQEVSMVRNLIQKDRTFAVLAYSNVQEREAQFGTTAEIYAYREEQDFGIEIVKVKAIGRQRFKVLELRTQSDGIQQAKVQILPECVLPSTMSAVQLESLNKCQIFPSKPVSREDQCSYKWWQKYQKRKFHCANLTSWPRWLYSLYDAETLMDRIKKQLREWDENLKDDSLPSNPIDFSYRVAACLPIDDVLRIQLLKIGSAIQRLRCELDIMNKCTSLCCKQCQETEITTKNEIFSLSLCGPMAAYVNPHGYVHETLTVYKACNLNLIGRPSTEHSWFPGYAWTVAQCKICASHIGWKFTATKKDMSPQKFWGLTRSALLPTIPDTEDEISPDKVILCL
T1 sequence (Q16531 whole entry partner): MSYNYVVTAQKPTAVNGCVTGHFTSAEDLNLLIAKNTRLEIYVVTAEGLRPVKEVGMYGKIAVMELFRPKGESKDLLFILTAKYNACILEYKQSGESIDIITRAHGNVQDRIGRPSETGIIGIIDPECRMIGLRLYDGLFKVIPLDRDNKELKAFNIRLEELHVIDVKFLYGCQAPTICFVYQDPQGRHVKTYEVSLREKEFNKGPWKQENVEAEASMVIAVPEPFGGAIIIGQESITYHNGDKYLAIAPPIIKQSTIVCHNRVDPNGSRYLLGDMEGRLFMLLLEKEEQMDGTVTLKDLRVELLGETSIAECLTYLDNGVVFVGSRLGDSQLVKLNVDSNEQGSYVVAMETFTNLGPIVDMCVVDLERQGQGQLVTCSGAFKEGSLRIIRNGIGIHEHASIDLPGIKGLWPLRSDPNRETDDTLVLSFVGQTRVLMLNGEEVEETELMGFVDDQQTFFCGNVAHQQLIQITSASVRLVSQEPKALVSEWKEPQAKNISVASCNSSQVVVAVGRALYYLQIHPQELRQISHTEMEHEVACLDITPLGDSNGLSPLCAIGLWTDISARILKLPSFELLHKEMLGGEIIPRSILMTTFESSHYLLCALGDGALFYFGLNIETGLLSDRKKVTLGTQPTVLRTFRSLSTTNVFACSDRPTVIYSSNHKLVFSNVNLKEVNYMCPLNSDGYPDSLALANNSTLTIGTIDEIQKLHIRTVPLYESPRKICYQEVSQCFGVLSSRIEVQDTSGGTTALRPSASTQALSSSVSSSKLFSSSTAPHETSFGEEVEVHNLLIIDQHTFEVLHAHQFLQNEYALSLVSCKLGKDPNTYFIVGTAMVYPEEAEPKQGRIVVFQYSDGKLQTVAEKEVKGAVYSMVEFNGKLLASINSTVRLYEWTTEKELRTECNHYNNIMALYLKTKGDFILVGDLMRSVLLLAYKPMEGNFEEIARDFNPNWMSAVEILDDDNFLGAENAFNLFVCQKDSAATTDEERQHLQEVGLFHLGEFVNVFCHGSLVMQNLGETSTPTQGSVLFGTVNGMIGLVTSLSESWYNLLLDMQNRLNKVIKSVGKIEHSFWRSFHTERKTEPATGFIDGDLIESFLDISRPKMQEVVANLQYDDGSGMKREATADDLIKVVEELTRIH
T1 sequence (Q13422 whole entry): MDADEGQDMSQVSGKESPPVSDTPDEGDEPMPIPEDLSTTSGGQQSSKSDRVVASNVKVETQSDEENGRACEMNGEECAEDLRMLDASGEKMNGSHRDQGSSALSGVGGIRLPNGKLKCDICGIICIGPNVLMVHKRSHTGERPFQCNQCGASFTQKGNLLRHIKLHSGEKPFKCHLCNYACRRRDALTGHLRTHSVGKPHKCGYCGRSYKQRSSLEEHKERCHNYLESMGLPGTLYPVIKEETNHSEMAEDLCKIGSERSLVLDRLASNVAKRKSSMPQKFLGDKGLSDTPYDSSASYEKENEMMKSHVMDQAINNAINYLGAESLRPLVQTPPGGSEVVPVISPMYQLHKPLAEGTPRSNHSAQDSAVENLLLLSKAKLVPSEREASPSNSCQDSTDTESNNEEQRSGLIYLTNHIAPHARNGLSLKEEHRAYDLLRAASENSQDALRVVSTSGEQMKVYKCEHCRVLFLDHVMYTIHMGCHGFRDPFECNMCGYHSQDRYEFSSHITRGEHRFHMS
T2 sequence (Q9UKS7 whole entry): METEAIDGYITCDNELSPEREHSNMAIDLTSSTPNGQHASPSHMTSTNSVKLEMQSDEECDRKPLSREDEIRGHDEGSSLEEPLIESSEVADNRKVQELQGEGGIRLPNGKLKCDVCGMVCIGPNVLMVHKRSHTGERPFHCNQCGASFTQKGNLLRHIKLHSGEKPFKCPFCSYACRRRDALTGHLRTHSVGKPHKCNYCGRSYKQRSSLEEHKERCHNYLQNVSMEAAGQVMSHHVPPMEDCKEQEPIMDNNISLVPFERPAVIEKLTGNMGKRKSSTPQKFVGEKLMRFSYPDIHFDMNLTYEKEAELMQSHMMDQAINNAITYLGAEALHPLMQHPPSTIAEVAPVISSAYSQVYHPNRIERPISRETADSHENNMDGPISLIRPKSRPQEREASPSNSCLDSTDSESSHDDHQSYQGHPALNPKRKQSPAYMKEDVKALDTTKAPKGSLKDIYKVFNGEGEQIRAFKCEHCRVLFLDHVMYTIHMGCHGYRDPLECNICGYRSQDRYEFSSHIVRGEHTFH
T2 sequence (Q96SW2 whole entry): as the sequence (Q96SW2 whole entry partner) above
T2 sequence (Q16531 whole entry partner): as the sequence (Q16531 whole entry partner) above

What is called DC50 is the midpoint of the concentration-degradation curve. The low end stands for a more potent degrader, the high end for a less potent degrader. One may read the Dmax as the greatest extent of degradation seen. With `CC(C)N(Cc1ccccc1)Cc1ccnc(-c2ccc3c(c2)CN(C2CCC(=O)NC2=O)C3=O)c1` (stereo not shown) [Example 19, 3-(5-(4-((benzyl(isopropyl)amino)methyl)pyridin-2-yl)-1-oxoisoindolin-2-yl)piperidine-2,6-dione], on Ikaros, the DC50 was above 10 µM and the Dmax is 50%. On Helios, the DC50 is 0.154 µM and the Dmax is 82%.

As to `CC1CCCN1Cc1ccnc(-c2ccc3c(c2)CN(C2CCC(=O)NC2=O)C3=O)c1` (stereo not shown) [Example 20, 3-(5-(4-((2-methylpyrrolidin-1-yl)methyl)pyridin-2-yl)-1-oxoisoindolin-2-yl)piperidine-2,6-dione], on Ikaros, the DC50 was above 10 µM and the Dmax turned out to be 11%. For the same molecule, at Helios, the 50% degradation concentration (DC50) came to 0.06 µM and the Dmax is 80%.

Take `CN(C)CCN(C)Cc1ccnc(-c2ccc3c(c2)CN(C2CCC(=O)NC2=O)C3=O)c1` (stereo not shown) [Example 21, 3-(5-(4-(((2-(dimethylamino)ethyl) (methyl)amino)methyl)pyridin-2-yl)-1-oxoisoindolin-2-yl)piperidine-2,6-dione]: the half-maximal degradation concentration (DC50) at Ikaros and on Helios was above 10 µM throughout. Moreover, the values for the Dmax at Ikaros and on Helios were 4% and 35%, respectively.

In the case of `CCN(Cc1ccncc1)Cc1ccnc(-c2ccc3c(c2)CN(C2CCC(=O)NC2=O)C3=O)c1` (stereo not shown) [Example 22, 3-(5-(4-((ethyl(pyridin-4-ylmethyl)amino)methyl)pyridin-2-yl)-1-oxoisoindolin-2-yl) piperidine-2,6-dione], on Ikaros, the DC50 was above 10 µM and the Dmax turned out to be 33%. For the same molecule, at Helios, it took 0.537 µM to reach half-maximal degradation (DC50) and the Dmax came out at 67%.

On to `O=C1CCC(N2Cc3cc(-c4cc(CN5CCC(N6CCCC6)CC5)ccn4)ccc3C2=O)C(=O)N1` (stereo not shown) [Example 23, 3-(1-oxo-5-(4-((4-(pyrrolidin-1-yl)piperidin-1-yl)methyl)pyridin-2-yl)isoindolin-2-yl)piperidine-2,6-dione], for which, at Ikaros, the 50% degradation concentration (DC50) was above 10 µM and the Dmax is 14%. Also, on Helios, the DC50 was above 10 µM and the Dmax came to 22%.

As for `O=C1CCC(N2Cc3cc(-c4cc(CN5CCN(C(=O)c6ccco6)CC5)ccn4)ccc3C2=O)C(=O)N1` (stereo not shown) [Example 24, 3-(5-(4-((4-(furan-2-carbonyl)piperazin-1-yl)methyl)pyridin-2-yl)-1-oxoisoindolin-2-yl)piperidine-2,6-dione], at Ikaros, the half-maximal degradation concentration (DC50) is above 10 µM and the Dmax turned out to be 11%. Besides, on Helios, the DC50 is above 10 µM and the Dmax turned out to be 3%.

As for `O=C1CCC(N2Cc3cc(-c4cc(CN5CCN(c6ccncc6)CC5)ccn4)ccc3C2=O)C(=O)N1` (stereo not shown) [Example 25, 3-(1-oxo-5-(4-((4-(pyridin-4-yl)piperazin-1-yl)methyl)pyridin-2-yl)isoindolin-2-yl)piperidine-2,6-dione], on Ikaros, the DC50 is above 10 µM and the Dmax was 0%. For the same molecule, on Helios, the DC50 is above 10 µM and the Dmax worked out at 0%.

`O=C1CCC(N2Cc3cc(-c4cc(CN5CCN(c6cnccn6)CC5)ccn4)ccc3C2=O)C(=O)N1` (stereo not shown) [Example 26, 3-(1-oxo-5-(4-((4-(pyrazin-2-yl)piperazin-1-yl)methyl)pyridin-2-yl)isoindolin-2-yl)piperidine-2,6-dione]: at Ikaros, the half-maximal degradation concentration (DC50) is above 10 µM and the Dmax is 15%. Besides, on Helios, the DC50 is above 10 µM and the Dmax stood at 6%.

Take `Cc1cccc(N2CCN(Cc3ccnc(-c4ccc5c(c4)CN(C4CCC(=O)NC4=O)C5=O)c3)CC2C)c1` (stereo not shown) [Example 27, 3-(5-(4-((3-methyl-4-(m-tolyl)piperazin-1-yl)methyl)pyridin-2-yl)-1-oxoisoindolin-2-yl)piperidine-2,6-dione]: on Ikaros, the DC50 was above 10 µM and the Dmax worked out at 7%. In addition, on Helios, the DC50 was above 10 µM and the Dmax is 36%.

For `CC(=O)N1CCN(Cc2ccnc(-c3ccc4c(c3)CN(C3CCC(=O)NC3=O)C4=O)c2)CC1` (stereo not shown) [Example 28, 3-(5-(4-((4-acetylpiperazin-1-yl)methyl)pyridin-2-yl)-1-oxoisoindolin-2-yl)piperidine-2,6-dione], the half-maximal degradation concentration (DC50) at Ikaros and at Helios was above 10 µM in each case. Moreover, the Dmax on Ikaros was 13%; on Helios, 17%.

Consider `CN1CCC(N(C)Cc2ccnc(-c3ccc4c(c3)CN(C3CCC(=O)NC3=O)C4=O)c2)C1` (stereo not shown) [Example 29, 3-(5-(4-((methyl(1-methylpyrrolidin-3-yl)amino)methyl)pyridin-2-yl)-1-oxoisoindolin-2-yl)piperidine-2,6-dione], for which, at Ikaros, the 50% degradation concentration (DC50) was above 10 µM and the Dmax is 6%. Also, at Helios, half-maximal degradation (DC50) was put at 7.51 µM and the “Helios Dmax” value stood at 55%.

As for `CN1CCC[C@H]1CC1CCCCN1Cc1ccnc(-c2ccc3c(c2)CN(C2CCC(=O)NC2=O)C3=O)c1` (stereo partly drawn) [Example 30, 3-(5-(4-((2-(((S)-1-methylpyrrolidin-2-yl)methyl)piperidin-1-yl)methyl)pyridin-2-yl)-1-oxoisoindolin-2-yl)piperidine-2,6-dione], on Ikaros, the DC50 was above 10 µM and the Dmax is -1%. Moreover, on Helios, the 50% degradation concentration (DC50) was above 10 µM and the Dmax worked out at 46%.

In the case of `CC(=O)N[C@H]1CCN(Cc2ccnc(-c3ccc4c(c3)CN(C3CCC(=O)NC3=O)C4=O)c2)C1` (stereo partly drawn) [Example 31, N-((3S)-1-((2-(2-(2,6-dioxopiperidin-3-yl)-1-oxoisoindolin-5-yl)pyridin-4-yl)methyl)pyrrolidin-3-yl)acetamide], on Ikaros, the DC50 is above 10 µM and the Dmax came to 20%. Also, on Helios, the DC50 stood at 0.268 µM and the Dmax stood at 81%.

Turning to `O=C1CCC(N2Cc3cc(-c4cc(CN5CCN(C(=O)C6CCCO6)CC5)ccn4)ccc3C2=O)C(=O)N1` (stereo not shown) [Example 32, 3-(1-oxo-5-(4-((4-(tetrahydrofuran-2-carbonyl)piperazin-1-yl)methyl)pyridin-2-yl)isoindolin-2-yl) piperidine-2,6-dione], on Ikaros, the DC50 is above 10 µM and the Dmax was found to be 23%. Also, at Helios, the DC50 was above 10 µM and the Dmax was determined as 35%.

Regarding `CN(C)[C@H]1CCN(Cc2ccnc(-c3ccc4c(c3)CN(C3CCC(=O)NC3=O)C4=O)c2)C1` (stereo partly drawn) [Example 33, 3-(5-(4-(((S)-3-(dimethylamino)pyrrolidin-1-yl)methyl)pyridin-2-yl)-1-oxoisoindolin-2-yl)piperidine-2,6-dione], the DC50 on Ikaros and at Helios was above 10 µM throughout. Moreover, the results for the Dmax at Ikaros and at Helios were 2% and 50%, respectively.

Consider `CN(CC(=O)N(C)C)Cc1ccnc(-c2ccc3c(c2)CN(C2CCC(=O)NC2=O)C3=O)c1` (stereo not shown) [Example 34, 2-(((2-(2-(2,6-dioxopiperidin-3-yl)-1-oxoisoindolin-5-yl)pyridin-4-yl)methyl)(methyl)amino)-N,N-dimethylacetamide], for which, at Ikaros, the half-maximal degradation concentration (DC50) is above 10 µM and the Dmax came to 9%. In addition, at Helios, the half-maximal degradation concentration (DC50) was above 10 µM and the Dmax is 26%.

Consider `CN1CCN(Cc2ccnc(-c3ccc4c(c3)CN(C3CCC(=O)NC3=O)C4=O)c2)CC1` (stereo not shown) [Example 35, 3-(5-(4-((4-methylpiperazin-1-yl)methyl)pyridin-2-yl)-1-oxoisoindolin-2-yl)piperidine-2,6-dione], for which the figures for the half-maximal degradation concentration (DC50) at Ikaros and on Helios were above 10 µM and 0.869 µM, respectively. Moreover, the Dmax on Ikaros amounted to 30%; on Helios it was 63%.

With `O=C1CCC(N2Cc3cc(-c4cc(CN5CCN(Cc6ccccc6)CC5)ccn4)ccc3C2=O)C(=O)N1` (stereo not shown) [Example 36], at Ikaros, the half-maximal degradation concentration (DC50) is above 10 µM and the “Ikaros Dmax” value came out at 14%. In addition, on Helios, the 50% degradation concentration (DC50) is above 10 µM and the “Helios Dmax” value was determined as 11%.

As to `O=C1CN(Cc2ccnc(-c3ccc4c(c3)CN(C3CCC(=O)NC3=O)C4=O)c2)CCN1` (stereo not shown) [Example 37, 3-(1-oxo-5-(4-((3-oxopiperazin-1-yl)methyl)pyridin-2-yl)isoindolin-2-yl)piperidine-2,6-dione], the DC50 on Ikaros and at Helios was above 10 µM each time. Further, the Dmax on Ikaros was determined as 10%; on Helios it was 24%.
